The NIST ThermoML archive (doi:10.1021/je060138i)
Numbers after ± are expanded uncertainties.

Assay: not given
Settings: 293.15 K; 101.33 kPa; Liquid
For `CC(=O)O` [acetic acid], the mass density was 1050 ± 1 kg/m3. `CC(C)=O` [acetone] gave a mass density of 790 ± 1 kg/m3. `CC#N` [acetonitrile] gave a mass density of 783 ± 1 kg/m3. Work on `ClCCl` [dichloromethane] yielded a mass density of 1321 ± 1 kg/m3. For `CCOC(C)=O` [ethyl acetate], the mass density was 899 ± 1 kg/m3.

Same assay, conditions: Crystal; visual observation
`O=P1(O)OCC2(CO1)COP(=O)(O)OC2` (stereo unspecified) showed a Normal melting temperature of 310.50 ± 4.4 °C.

Assay: refractive index (Na D-line) (dimensionless)
Settings: 293.15 K; 101.33 kPa; Liquid; Standard Abbe refractometry
`CC(=O)O` [acetic acid] showed a refractive index of 1.3718 ± 0.0008. With `CC(C)=O` [acetone] the refractive index was 1.359 ± 0.0007. Work on `CC#N` [acetonitrile] yielded a refractive index of 1.343 ± 0.0007. In the case of `ClCCl` [dichloromethane], the refractive index is reported as 1.4237 ± 0.0007. Molecule `CCOC(C)=O` [ethyl acetate] has a refractive index of 1.3719 ± 0.0007.
